PubChem BioAssay (NCI)
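A five-concentration, 48-hour dose response in 96-well plates underlies each endpoint, interpolated linearly between surrounding concentrations. TGI is the concentration that stops growth completely.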

Legend:
Test in all cases: DTP human tumour cell line panel, 48 h
[1] = system: NCI-H460 lung
[2] = system: OVCAR-3 ovarian
[3] = system: HOP-92 NSCLC
[4] = system: UO-31 renal
[5] = system: RPMI-8226 leukemia
[6] = system: MDA-N
[7] = system: M14 melanoma
[8] = system: HT29 colon
[9] = system: CAKI-1 renal
[10] = system: OVCAR-5 ovarian
[11] = system: SK-MEL-2 melanoma
[12] = system: CCRF-CEM leukemia
[13] = system: MCF7 breast
[14] = system: HS 578T breast
[15] = system: A549 NSCLC
[16] = system: KM12 colon
[17] = system: COLO 205 colon
[18] = system: UACC-257 melanoma
[19] = system: HCC-2998 colon
[20] = system: DU-145 prostate
[21] = system: SNB-75 CNS
[22] = system: OVCAR-4 ovarian
[23] = system: A498 renal
[24] = system: IGROV1 ovarian
[25] = system: UACC-62 melanoma
[26] = system: SW-620 colon
[27] = system: SR leukemia
[28] = system: SF-295 CNS
[29] = system: PC-3 prostate
[30] = system: SNB-19 CNS
[31] = system: SK-MEL-28 melanoma
[32] = system: HL-60(TB) leukemia
[33] = system: U251 CNS
[34] = system: RXF 393 renal
[35] = system: TK-10 renal
[36] = system: NCI-H522 lung
[37] = system: MOLT-4 leukemia
[38] = system: SN12C renal
[39] = system: K-562 leukemia
[40] = system: T-47D breast
[41] = system: HCT-116 colon
[42] = system: NCI-H23 lung
[43] = system: MDA-MB-435
[44] = system: NCI/ADR-RES ovarian
[45] = system: SK-MEL-5 melanoma
[46] = system: OVCAR-8 ovarian
[47] = system: SF-268 CNS
[48] = system: HOP-62 NSCLC
[49] = system: HCT-15 colon
[50] = system: NCI-H226 lung
[51] = system: EKVX NSCLC
[52] = system: SF-539 CNS
[53] = system: 786-0 renal
[54] = system: LOX IMVI melanoma
[55] = system: ACHN renal
[56] = system: SK-OV-3 ovarian
[57] = system: MALME-3M melanoma
[58] = system: MDA-MB-231 breast

Measured: TGI

CC(C(O)c1ccccc1)C(O)(C(F)(F)F)C(F)(F)F (stereo not drawn)
> 100 µM: all assays above
